Test results from patent publication EP0335292A2, “2,6-Methano-1,3-benzodiazocines, a process for their preparation and their use as medicaments” (HOECHST-ROUSSEL PHARMACEUTICALS INCORPORATED, priority 1988, dated 1989).
Where a name gives a salt, the structure may show the parent alone.

System: mice
Assay: modified phenyl-p-quinone writhing assay in mice (analgesia)
Type: in vivo
Settings: Mus musculus, sc; read-out: Analgesic Activity (Inhibition of Writhing ED₅₀mg/kg,s.c.)
Experimental: The 2,6-methano-1,3-benzodiazocines of this invention are useful as analgetics due to their ability to alleviate pain in mammals. The procedure employed to determine analgetic activity is a modification of the phenyl-p-quinone writhing assay in mice, a standard assay for analgesia [Proc. Soc. Exptl. Bio. Med., 95 729(1957)]. Pursuant to the modified procedure, phenyl-p-benzoquinone (Eastman, 12.5 mg) is dissolved in 5 ml of 95% ethanol and the solution is diluted to a total volume of 100 ml with distilled water. The solution is administered to the subject mice intraperitoneally at a dose of 10 ml per kg of body weight. A characteristic "writhe", an inward rotation of one or more feet with twisting and turning of the trunk, drawing in of the abdominal wall, lordosis and arching of the back, is produced.
A total of 28 male mice (Charles River, CD-1), weighing 18 to 30 grams, are employed for a time response. The subject animals receive food and water ad libitum. Test compounds are dissolved in distilled water, or suspended in distilled water containing one drop of a suitable surfactant, such as Tween-80.
Four groups of five animals (20 animals) are given the test compound subcutaneously or orally (p.o.) at 15, 30, 45, and 60 minutes prior to administration of the phenyl-p-quinone. A control group (2 animals per group) receive an equal volume of the vehicle. After the administration of the phenyl-p-quinone, the mice are placed separately in one liter beakers, and after five minutes, are observed for ten minutes. The number of writhes for each animal is recorded. The following formula is used to compute the percent inhibition: […]
The time period with the greatest percent of inhibition is considered the peak time. A dose range determination is generally reserved for those compounds which inhibit [formula] writhing by greater than 65-70% at the screening dose. A dose range determination is run in the same manner as the time response except 10 animals per group are tested at the peak time of test drug activity. Fifty animals, four test drug groups, and a vehicle control are employed. Animals are dosed and tested in a randomized manner.

Work on `CC(=O)Oc1ccc2c(c1)C1CCN(C)C(C1)N2C` (centres unmarked) [1,2,3,4,5,6-Hexahydro-1,3-dimethyl-2,6-methano-1,3-benzodiazocin-8-ol acetate, fumarate] yielded an ED50 of 0.74 mg/kg.

In the case of `CN1CCC2CC1N(C)c1ccc(O)cc12.O=C(O)/C=C/C(=O)O` (centres unmarked) [1,2,3,4,5,6-Hexahydro-1,3-dimethyl-2,6-methano-1,3-benzodiazocin-8-ol fumarate], the ED50 is reported as 0.7 mg/kg.

Work on `COc1ccc2c(c1)C1CCN(C)C(C1)N2C` (centres unmarked) [1,2,3,4,5,6-Hexahydro-8-methoxy-1,3-dimethyl-2,6-methano 1,3-benzodiazocine] yielded an ED50 of 10.2 mg/kg.

`CN1CCC2CC1N(C)c1c(Br)cc(O)cc12` (centres unmarked) [10-Bromo-1,2,3,4,5,6-hexahydro-1,3-dimethyl-2,6-methano-1,3-benzodiazocin-8-ol, hemi-fumarate] gave an ED50 of 1.9 mg/kg.

`CC(C)=CCN1CCC2(C)c3cc(O)ccc3CC1C2C` (centres unmarked) [pentazocine, reference compound] showed an ED50 of 1.3 mg/kg.
